For this test, the system named is rat elevated plus-maze. Kind of test: rat elevated plus-maze (animal model of anxiety). In kind it is in vivo. Conditions: 3 mg/kg po. How it is done:
This model was carried out as described in J. Neurosci. Methods 1985; 14:149-167.

The source of these data is patent publication US6355685B1, “Method of treating anxiety disorders” (Knoll Pharmaceutical Company, priority 1999, dated 2002).

Each structure is given as a SMILES string.

As for `CC(C)CC(N(C)C)C1(c2ccc(Cl)cc2)CCC1.Cl.O` (stereo not shown) [N-{1-[1-(4-chlorophenyl)cyclobutyl]-3-methylbutyl}-N,N-dimethylamine hydrochloride monohydrate], the “open: total arm entry ratio” value is on record as “significant anxiolytic-like increase”.
